Activity calls are given as the source filed them. The rule behind the calls is not given here.
Key:
Echinochloa oryzicola [1] = assay: Herbicidal activity against Echinochloa oryzicola grown in water-drained pot under greenhouse condition assessed as growth inhibition at 250 g /ha measured after 33 days; type: functional, organism-based
Echinochloa oryzicola [2] = assay: Herbicidal activity against Echinochloa oryzicola grown in water-drained pot under greenhouse condition assessed as growth inhibition at 250 g /ha measured after 27 days; type: functional, organism-based
Echinochloa oryzicola [3] = assay: Herbicidal activity against Echinochloa oryzicola grown in water-drained pot under greenhouse condition assessed as growth inhibition at 250 g /ha measured after 20 days; type: functional, organism-based
Echinochloa oryzicola [4] = assay: Herbicidal activity against Echinochloa oryzicola grown in water-drained pot under greenhouse condition assessed as growth inhibition at 250 g /ha measured after 13 days; type: functional, organism-based
Echinochloa oryzicola [5] = assay: Herbicidal activity against Echinochloa oryzicola grown in water-drained pot under greenhouse condition assessed as growth inhibition at 250 g /ha measured after 6 days; type: functional, organism-based
Echinochloa oryzicola [6] = assay: Herbicidal activity against Echinochloa oryzicola grown in water-drained pot under greenhouse condition assessed as growth inhibition at 1000 g /ha measured after 42 days; type: functional, organism-based
Echinochloa oryzicola [7] = assay: Herbicidal activity against Echinochloa oryzicola grown in water-drained pot under greenhouse condition assessed as growth inhibition at 1000 g /ha measured after 33 days; type: functional, organism-based
Echinochloa oryzicola [8] = assay: Herbicidal activity against Echinochloa oryzicola grown in water-drained pot under greenhouse condition assessed as growth inhibition at 1000 g /ha measured after 27 days; type: functional, organism-based
Echinochloa oryzicola [9] = assay: Herbicidal activity against Echinochloa oryzicola grown in water-drained pot under greenhouse condition assessed as growth inhibition at 1000 g /ha measured after 13 days; type: functional, organism-based
Echinochloa oryzicola [10] = assay: Herbicidal activity against Echinochloa oryzicola grown in water-drained pot under greenhouse condition assessed as growth inhibition at 1000 g /ha measured after 20 days; type: functional, organism-based
Echinochloa oryzicola [11] = assay: Herbicidal activity against Echinochloa oryzicola grown in water-drained pot under greenhouse condition assessed as growth inhibition at 1000 g /ha measured after 6 days; type: functional, organism-based
Echinochloa oryzicola [12] = assay: Herbicidal activity against Echinochloa oryzicola grown in water-drained pot under greenhouse condition assessed as growth inhibition at 250 g /ha measured after 42 days; type: functional, organism-based
Echinochloa oryzicola [13] = assay: Herbicidal activity against Echinochloa oryzicola grown in water-drained pot under greenhouse condition assessed as time duration of residual effect at 1000 g /ha; type: functional
Echinochloa oryzicola [14] = assay: Herbicidal activity against Echinochloa oryzicola grown in water-drained pot under greenhouse condition assessed as time duration of residual effect at 250 g /ha; type: functional
Echinochloa oryzicola [15] = assay: Herbicidal activity against Echinochloa oryzicola under greenhouse condition assessed as time duration of residual effect at 250 g /ha; type: functional
Echinochloa oryzicola [16] = assay: Herbicidal activity against Echinochloa oryzicola under greenhouse condition assessed as time duration of residual effect at 1000 g /ha; type: functional
Echinochloa oryzicola [17] = assay: Herbicidal activity against Echinochloa oryzicola under greenhouse condition assessed as growth inhibition at 1000 g /ha measured after 42 days; type: functional, organism-based
Echinochloa oryzicola [18] = assay: Herbicidal activity against Echinochloa oryzicola under greenhouse condition assessed as growth inhibition at 1000 g /ha measured after 33 days; type: functional, organism-based
Echinochloa oryzicola [19] = assay: Herbicidal activity against Echinochloa oryzicola under greenhouse condition assessed as growth inhibition at 1000 g /ha measured after 27 days; type: functional, organism-based
Echinochloa oryzicola [20] = assay: Herbicidal activity against Echinochloa oryzicola under greenhouse condition assessed as growth inhibition at 1000 g /ha measured after 20 days; type: functional, organism-based
Echinochloa oryzicola [21] = assay: Herbicidal activity against Echinochloa oryzicola under greenhouse condition assessed as growth inhibition at 1000 g /ha measured after 13 days; type: functional, organism-based
Echinochloa oryzicola [22] = assay: Herbicidal activity against Echinochloa oryzicola under greenhouse condition assessed as growth inhibition at 250 g /ha measured after 42 days; type: functional, organism-based
Echinochloa oryzicola [23] = assay: Herbicidal activity against Echinochloa oryzicola under greenhouse condition assessed as growth inhibition at 250 g /ha measured after 27 days; type: functional, organism-based
Echinochloa oryzicola [24] = assay: Herbicidal activity against Echinochloa oryzicola under greenhouse condition assessed as growth inhibition at 250 g /ha measured after 20 days; type: functional, organism-based
Echinochloa oryzicola [25] = assay: Herbicidal activity against Echinochloa oryzicola under greenhouse condition assessed as growth inhibition at 250 g /ha measured after 13 days; type: functional, organism-based
Echinochloa oryzicola [26] = assay: Herbicidal activity against Echinochloa oryzicola under greenhouse condition assessed as growth inhibition at 250 g /ha measured after 6 days; type: functional, organism-based
Echinochloa oryzicola [27] = assay: Herbicidal activity against Echinochloa oryzicola under greenhouse condition assessed as growth inhibition at 1000 g /ha measured after 6 days; type: functional, organism-based
Echinochloa oryzicola [28] = assay: Herbicidal activity against Echinochloa oryzicola under greenhouse condition assessed as growth inhibition at 250 g /ha measured after 33 days; type: functional, organism-based
Echinochloa oryzicola [29] = assay: Herbicidal activity against Echinochloa oryzicola grown in water-drained pot under greenhouse condition assessed as time duration of residual effect at 500 g /ha; type: functional
Echinochloa oryzicola [30] = assay: Herbicidal activity against Echinochloa oryzicola grown in water-drained pot under greenhouse condition assessed as time duration of residual effect at 125 g /ha; type: functional
Echinochloa oryzicola [31] = assay: Herbicidal activity against Echinochloa oryzicola under greenhouse condition assessed as time duration of residual effect at 500 g /ha; type: functional
Echinochloa oryzicola [32] = assay: Herbicidal activity against Echinochloa oryzicola under greenhouse condition assessed as time duration of residual effect at 125 g /ha; type: functional
Echinochloa oryzicola [33] = assay: Herbicidal activity against Echinochloa oryzicola grown in water-drained pot under greenhouse condition assessed as growth inhibition at 125 g /ha measured after 6 days; type: functional, organism-based
Echinochloa oryzicola [34] = assay: Herbicidal activity against Echinochloa oryzicola under greenhouse condition assessed as growth inhibition at 500 g /ha measured after 42 days; type: functional, organism-based
Echinochloa oryzicola [35] = assay: Herbicidal activity against Echinochloa oryzicola under greenhouse condition assessed as growth inhibition at 500 g /ha measured after 27 days; type: functional, organism-based
Echinochloa oryzicola [36] = assay: Herbicidal activity against Echinochloa oryzicola under greenhouse condition assessed as growth inhibition at 500 g /ha measured after 33 days; type: functional, organism-based
Echinochloa oryzicola [37] = assay: Herbicidal activity against Echinochloa oryzicola under greenhouse condition assessed as growth inhibition at 500 g /ha measured after 20 days; type: functional, organism-based
Echinochloa oryzicola [38] = assay: Herbicidal activity against Echinochloa oryzicola under greenhouse condition assessed as growth inhibition at 500 g /ha measured after 13 days; type: functional, organism-based
Echinochloa oryzicola [39] = assay: Herbicidal activity against Echinochloa oryzicola under greenhouse condition assessed as growth inhibition at 500 g /ha measured after 6 days; type: functional, organism-based
Echinochloa oryzicola [40] = assay: Herbicidal activity against Echinochloa oryzicola under greenhouse condition assessed as growth inhibition at 125 g /ha measured after 42 days; type: functional, organism-based
Echinochloa oryzicola [41] = assay: Herbicidal activity against Echinochloa oryzicola under greenhouse condition assessed as growth inhibition at 125 g /ha measured after 33 days; type: functional, organism-based
Echinochloa oryzicola [42] = assay: Herbicidal activity against Echinochloa oryzicola under greenhouse condition assessed as growth inhibition at 125 g /ha measured after 27 days; type: functional, organism-based
Echinochloa oryzicola [43] = assay: Herbicidal activity against Echinochloa oryzicola under greenhouse condition assessed as growth inhibition at 125 g /ha measured after 20 days; type: functional, organism-based
Echinochloa oryzicola [44] = assay: Herbicidal activity against Echinochloa oryzicola under greenhouse condition assessed as growth inhibition at 125 g /ha measured after 6 days; type: functional, organism-based
Echinochloa oryzicola [45] = assay: Herbicidal activity against Echinochloa oryzicola under greenhouse condition assessed as growth inhibition at 125 g /ha measured after 13 days; type: functional, organism-based
Echinochloa oryzicola [46] = assay: Herbicidal activity against Echinochloa oryzicola grown in water-drained pot under greenhouse condition assessed as growth inhibition at 500 g /ha measured after 42 days; type: functional, organism-based
Echinochloa oryzicola [47] = assay: Herbicidal activity against Echinochloa oryzicola grown in water-drained pot under greenhouse condition assessed as growth inhibition at 500 g /ha measured after 33 days; type: functional, organism-based
Echinochloa oryzicola [48] = assay: Herbicidal activity against Echinochloa oryzicola grown in water-drained pot under greenhouse condition assessed as growth inhibition at 500 g /ha measured after 27 days; type: functional, organism-based
Echinochloa oryzicola [49] = assay: Herbicidal activity against Echinochloa oryzicola grown in water-drained pot under greenhouse condition assessed as growth inhibition at 500 g /ha measured after 20 days; type: functional, organism-based
Echinochloa oryzicola [50] = assay: Herbicidal activity against Echinochloa oryzicola grown in water-drained pot under greenhouse condition assessed as growth inhibition at 500 g /ha measured after 13 days; type: functional, organism-based
Echinochloa oryzicola [51] = assay: Herbicidal activity against Echinochloa oryzicola grown in water-drained pot under greenhouse condition assessed as growth inhibition at 500 g /ha measured after 6 days; type: functional, organism-based
Echinochloa oryzicola [52] = assay: Herbicidal activity against Echinochloa oryzicola grown in water-drained pot under greenhouse condition assessed as growth inhibition at 125 g /ha measured after 42 days; type: functional, organism-based
Echinochloa oryzicola [53] = assay: Herbicidal activity against Echinochloa oryzicola grown in water-drained pot under greenhouse condition assessed as growth inhibition at 125 g /ha measured after 33 days; type: functional, organism-based
Echinochloa oryzicola [54] = assay: Herbicidal activity against Echinochloa oryzicola grown in water-drained pot under greenhouse condition assessed as growth inhibition at 125 g /ha measured after 27 days; type: functional, organism-based
Echinochloa oryzicola [55] = assay: Herbicidal activity against Echinochloa oryzicola grown in water-drained pot under greenhouse condition assessed as growth inhibition at 125 g /ha measured after 13 days; type: functional, organism-based
Echinochloa oryzicola [56] = assay: Herbicidal activity against Echinochloa oryzicola grown in water-drained pot under greenhouse condition assessed as growth inhibition at 125 g /ha measured after 20 days; type: functional, organism-based

## CN(C(=O)COc1nc2ccccc2s1)c1ccccc1 [MEFENACET]
Echinochloa oryzicola [1]
  growth inhibition (GI): inactive
Echinochloa oryzicola [2]
  growth inhibition (GI): inactive
Echinochloa oryzicola [3]
  growth inhibition (GI): inactive
Echinochloa oryzicola [4]
  growth inhibition (GI): Active
Echinochloa oryzicola [5]
  growth inhibition (GI): Active
Echinochloa oryzicola [6]
  growth inhibition (GI): Active
Echinochloa oryzicola [7]
  growth inhibition (GI): Active
Echinochloa oryzicola [8]
  growth inhibition (GI): Active
Echinochloa oryzicola [9]
  growth inhibition (GI): Active
Echinochloa oryzicola [10]
  growth inhibition (GI): Active
Echinochloa oryzicola [11]
  growth inhibition (GI): Active
Echinochloa oryzicola [12]
  growth inhibition (GI): inactive
Echinochloa oryzicola [13]
  Time: 33 days
Echinochloa oryzicola [14]
  Time: 13 days
Echinochloa oryzicola [15]
  Time: 13 days
Echinochloa oryzicola [16]
  Time: 33 days
Echinochloa oryzicola [17]
  growth inhibition (GI): Active
Echinochloa oryzicola [18]
  growth inhibition (GI): Active
Echinochloa oryzicola [19]
  growth inhibition (GI): Active
Echinochloa oryzicola [20]
  growth inhibition (GI): Active
Echinochloa oryzicola [21]
  growth inhibition (GI): Active
Echinochloa oryzicola [22]
  growth inhibition (GI): inactive
Echinochloa oryzicola [23]
  growth inhibition (GI): inactive
Echinochloa oryzicola [24]
  growth inhibition (GI): Active
Echinochloa oryzicola [25]
  growth inhibition (GI): Active
Echinochloa oryzicola [26]
  growth inhibition (GI): Active
Echinochloa oryzicola [27]
  growth inhibition (GI): Active
Echinochloa oryzicola [28]
  growth inhibition (GI): inactive

## CCCOCCN(C(=O)CCl)c1c(CC)cccc1CC [PRETILACHLOR]
Echinochloa oryzicola [29]
  Time: 16 days
Echinochloa oryzicola [30]
  Time: 6 days
Echinochloa oryzicola [31]
  Time: 27 days
Echinochloa oryzicola [32]
  Time: 13 days
Echinochloa oryzicola [33]
  growth inhibition (GI): Active
Echinochloa oryzicola [34]
  growth inhibition (GI): inactive
Echinochloa oryzicola [35]
  growth inhibition (GI): Active
Echinochloa oryzicola [36]
  growth inhibition (GI): Active
Echinochloa oryzicola [37]
  growth inhibition (GI): Active
Echinochloa oryzicola [38]
  growth inhibition (GI): Active
Echinochloa oryzicola [39]
  growth inhibition (GI): Active
Echinochloa oryzicola [40]
  growth inhibition (GI): inactive
Echinochloa oryzicola [41]
  growth inhibition (GI): inactive
Echinochloa oryzicola [42]
  growth inhibition (GI): inactive
Echinochloa oryzicola [43]
  growth inhibition (GI): Active
Echinochloa oryzicola [44]
  growth inhibition (GI): Active
Echinochloa oryzicola [45]
  growth inhibition (GI): Active
Echinochloa oryzicola [46]
  growth inhibition (GI): inactive
Echinochloa oryzicola [47]
  growth inhibition (GI): Active
Echinochloa oryzicola [48]
  growth inhibition (GI): Active
Echinochloa oryzicola [49]
  growth inhibition (GI): Active
Echinochloa oryzicola [50]
  growth inhibition (GI): Active
Echinochloa oryzicola [51]
  growth inhibition (GI): Active
Echinochloa oryzicola [52]
  growth inhibition (GI): inactive
Echinochloa oryzicola [53]
  growth inhibition (GI): inactive
Echinochloa oryzicola [54]
  growth inhibition (GI): inactive
Echinochloa oryzicola [55]
  growth inhibition (GI): Active
Echinochloa oryzicola [56]
  growth inhibition (GI): inactive
